How the values were obtained:
[1] = biological target: T1, Btk enzyme (His-tagged, full-length) (Homo sapiens, UniProt Q06187); assay: Bruton's Tyrosine Kinase (Btk) Inhibition Assay (33P filtration capture); type: biochemical; conditions: 100 μM ATP, 30 μM biotinylated SH2 peptide substrate, 30 min at 30° C.
T1 construct: 5-10 nM Btk enzyme (His-tagged, full-length); His
Text: The assay is a capture of radioactive ^33P phosphorylated product through filtration. The interactions of Btk, biotinylated SH2 peptide substrate (Src homology), and ATP lead to phosphorylation of the peptide substrate. Biotinylated product is bound streptavidin sepharose beads. All bound, radiolabeled products are detected by scintillation counter.
Plates assayed are 96-well polypropylene (Greiner) and 96-well 1.2 μm hydrophilic PVDF filter plates (Millipore). Concentrations reported here are final assay concentrations: 10-100 μM compounds in DMSO (Burdick and Jackson), 5-10 nM Btk enzyme (His-tagged, full-length), 30 μM peptide substrate (Biotin-Aca-AAAEEIYGEI-NH2), 100 μM ATP (Sigma), 8 mM imidazole (Sigma, pH 7.2), 8 mM glycerol-2-phosphate (Sigma), 200 μM EGTA (Roche Diagnostics), 1 mM MnCl2 (Sigma), 20 mM MgCl2 (Sigma), 0.1 mg/ml BSA (Sigma), 2 mM DTT (Sigma), 1 μCi ^33P ATP (Amersham), 20% streptavidin sepharose beads (Amersham), 50 mM EDTA (Gibco), 2 M NaCl (Gibco), 2 M NaCl w/1% phosphoric acid (Gibco), microscint-20 (Perkin Elmer).
IC50 determinations are calculated from 10 data points per compound utilizing data produced from a standard 96-well plate assay template. One control compound and seven unknown inhibitors were tested on each plate and each plate was run twice. Typically, compounds were diluted in half-log starting at 100 μM and ending at 3 nM. The control compound was staurosporine. Background was counted in the absence of peptide substrate. Total activity was determined in the presence of peptide substrate. The following protocol was used to determine Btk inhibition.
1) Sample preparation: The test compounds were diluted at half-log increments in assay buffer (imidazole, glycerol-2-phosphate, EGTA, MnCl2, MgCl2, BSA).
2) Bead preparation • a.) rinse beads by centrifuging at 500 g • b.) reconstitute the beads with PBS and EDTA to produce a 20% bead slurry
3) Pre-incubate reaction mix without substrate (assay buffer, DTT, ATP, P ATP) and mix with substrate (assay buffer, DTT, ATP, ^33P ATP, peptide substrate) 30° C. for 15 min.
4) To start assay, pre-incubate 10 μL Btk in enzyme buffer (imidazole, glycerol-2-phosphate, BSA) and 10 μL of test compounds for 10 min at RT.
5) Add 30 μL reaction mixture without or with substrate to Btk and compounds.
6) Incubate 50 μL total assay mix for 30 min at 30° C.
7) Transfer 40 μL of assay to 150 μL bead slurry in filter plate to stop reaction.
8) Wash filter plate after 30 min, with following steps • a. 3×250 μL NaCl • b. 3×250 μL NaCl containing 1% phosphoric acid • c. 1×250 μL H2O
9) Dry plate for 1 h at 65° C. or overnight at RT
10) Add 50 μL microscint-20 and count ^33P cpm on scintillation counter.
Calculate percent activity from raw data in cpm percent activity=(sample−bkg)/(total activity−bkg)×100
Calculate IC50 from percent activity, using one-site dose response sigmoidal model y=A+((B−A)/(1+((x/C)^D)))) • x=cmpd conc, y=% activity, A=min, B=max, C=IC50, D=1 (hill slope)

T1 sequence (Q06187 whole entry): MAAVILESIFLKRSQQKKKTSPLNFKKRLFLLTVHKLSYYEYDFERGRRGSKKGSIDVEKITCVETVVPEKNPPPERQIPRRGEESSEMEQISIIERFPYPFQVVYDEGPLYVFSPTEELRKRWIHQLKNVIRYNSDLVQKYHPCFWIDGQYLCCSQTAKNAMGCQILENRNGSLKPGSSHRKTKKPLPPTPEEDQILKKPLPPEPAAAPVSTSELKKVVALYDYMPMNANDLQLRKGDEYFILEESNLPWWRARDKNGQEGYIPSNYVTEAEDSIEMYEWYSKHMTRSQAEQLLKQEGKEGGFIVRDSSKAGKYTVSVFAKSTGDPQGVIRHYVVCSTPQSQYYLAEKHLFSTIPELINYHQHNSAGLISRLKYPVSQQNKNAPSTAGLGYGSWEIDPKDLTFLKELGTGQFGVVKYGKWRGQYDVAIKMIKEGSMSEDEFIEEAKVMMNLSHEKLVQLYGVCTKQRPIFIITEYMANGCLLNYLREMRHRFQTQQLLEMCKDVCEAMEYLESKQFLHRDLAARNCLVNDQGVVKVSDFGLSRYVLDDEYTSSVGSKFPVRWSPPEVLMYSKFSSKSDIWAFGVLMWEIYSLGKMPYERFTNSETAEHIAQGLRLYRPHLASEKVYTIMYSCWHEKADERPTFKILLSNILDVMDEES

SMILES	IC50 [1]	melting point
Cn1ccc(Nc2cc(-c3cccc(NC(=O)c4ccc(C5CC5)cc4)c3CO)nn3ccnc23)n1 [Example I-45, 4-Cyclopropyl-N-{2-hydroxymethyl-3-[8-(1-methyl-1H-pyrazol-3-ylamino)-imidazo[1,2-b]pyridazin-6-yl]-phenyl}-benzamide]	15 nM	–
Cc1c(NC(=O)c2ccc(N(C)C)cc2)cccc1-c1cc(NC(=O)NCCCN2CCN(C)CC2)c2nccn2c1 [Example I-72, 4-Dimethylamino-N-[2-methyl-3-(8-{3-[3-(4-methyl-piperazin-1-yl)-propyl]-ureido}-imidazo[1,2-a]pyridin-6-yl)-phenyl]-benzamide]	–	144 to 145 °C
CNC(=O)Nc1cc(-c2ccccc2)nn2ccnc12 [Example I-13, 1-Methyl-3-(6-phenyl-imidazo[1,2-b]pyridazin-8-yl)-urea]	–	192 to 193 °C
Cc1c(NC(=O)NC2CCC(S(C)(=O)=O)CC2)cccc1-c1cc(Nc2ccc(C(=O)N3CCOCC3)cn2)c2nccn2c1 (stereo not drawn) [Example I-218, 1-(4-Methanesulfonyl-cyclohexyl)-3-(2-methyl-3-{8-[5-(morpholine-4-carbonyl)-pyridin-2-ylamino]-imidazo[1,2-a]pyridin-6-yl}-phenyl)-urea]	10 nM	–
Cc1c(NC(=O)c2ccc(C(O)(C(F)(F)F)C(F)(F)F)cc2)cccc1-c1cc(NC(=O)NCCCN(C)C)c2nccn2c1 [Example I-98, N-(3-{8-[3-(3-Dimethylamino-propyl)-ureido]-imidazo[1,2-a]pyridin-6-yl}-2-methyl-phenyl)-4-(2,2,2-trifluoro-1-hydroxy-1-trifluoromethyl-ethyl)-benzamide]	–	198 to 200 °C
CCOC(=O)c1ccc(Nc2cc(-c3ccccc3)cn3ccnc23)nc1 [Example I-47, 6-(6-Phenyl-imidazo[1,2-a]pyridin-8-ylamino)-nicotinic acid ethyl ester]	–	141.5 to 142.5 °C
CC(O)(C#CCNC(=O)Cc1cccc(-c2cc(Nc3ccc(C(=O)N4CCOCC4)cn3)c3nccn3c2)c1)C(F)(F)F (stereo not drawn) [Example I-84, 2-(3-{8-[5-(Morpholine-4-carbonyl)-pyridin-2-ylamino]-imidazo[1,2-a]pyridin-6-yl}-phenyl)-N-(5,5,5-trifluoro-4-hydroxy-4-methyl-pent-2-ynyl)-acetamide]	–	136.8 to 147.5 °C
CNC(=O)Nc1cc(-c2cccc(CC(=O)N3Cc4ccccc4C3)c2)nn2ccnc12 [Example I-14, 1-(6-{3-[2-(1,3-Dihydro-isoindol-2-yl)-2-oxo-ethyl]-phenyl}-imidazo[1,2-b]pyridazin-8-yl)-3-methyl-urea]	–	244 to 245 °C
O=C(Nc1cccc(-c2cc(Nc3ccc(C(=O)N4CCOCC4)cn3)c3nccn3n2)c1CO)c1ccc(C2CC2)cc1 [Example I-43, 4-Cyclopropyl-N-(2-hydroxymethyl-3-{8-[5-(morpholine-4-carbonyl)-pyridin-2-ylamino]-imidazo[1,2-b]pyridazin-6-yl}-phenyl)-benzamide]	13 nM	–
O=C(Cc1cccc(-c2cc(Nc3ccc(C(=O)N4CCOCC4)cn3)c3nccn3c2)c1)N1CC(OC(C(F)(F)F)C(F)(F)F)C1 [Example I-90, 2-(3-{8-[5-(Morpholine-4-carbonyl)-pyridin-2-ylamino]-imidazo[1,2-a]pyridin-6-yl}-phenyl)-1-[3-(2,2,2-trifluoro-1-trifluoromethyl-ethoxy)-azetidin-1-yl]-ethanone]	–	137 to 138 °C
CNC(=O)Nc1cc(-c2cccc(NC(=O)N3CC(OC(C)(C)C)C3)c2C)cn2ccnc12 [Example I-75, 3-tert-Butoxy-azetidine-1-carboxylic acid {2-methyl-3-[8-(3-methyl-ureido)-imidazo[1,2-a]pyridin-6-yl]-phenyl}-amide]	–	158 to 161 °C

Second part, the compound after the results:

IC50 [1]	melting point	SMILES
24 nM	148 to 149 °C	CNC(=O)Nc1cc(-c2cccc(NC(=O)c3ccc(C(C)(C)C)cc3)c2C)cn2ccnc12 [Example I-56, 4-tert-Butyl-N-{2-methyl-3-[8-(3-methyl-ureido)-imidazo[1,2-a]pyridin-6-yl]-phenyl}-benzamide]
18 nM	182.7 to 199.7 °C	Cc1c(NC(=O)c2ccc(C(C)(C)C)cc2)cccc1-c1cc(NC(=O)NCCCN(C)C)c2nccn2c1 [Example I-77, 4-tert-Butyl-N-(3-{8-[3-(3-dimethylamino-propyl)-ureido]-imidazo[1,2-a]pyridin-6-yl}-2-methyl-phenyl)-benzamide]
–	176 to 177 °C	Cc1c(NC(=O)c2ccc(C(C)(C)C)cc2)cccc1-c1cc(NC(=O)NCCO)c2nccn2c1 [Example I-71, 4-tert-Butyl-N-(3-{8-[3-(2-hydroxy-ethyl)-ureido]-imidazo[1,2-a]pyridin-6-yl}-2-methyl-phenyl)-benzamide]
22 nM	181 to 183 °C	CCNC(=O)Nc1cc(-c2cccc(NC(=O)c3ccc(C(C)(C)C)cc3)c2C)nn2ccnc12 [Example I-7, 4-tert-Butyl-N-{3-[8-(3-ethyl-ureido)-imidazo[1,2-b]pyridazin-6-yl]-2-methyl-phenyl}-benzamide]
–	185.4 to 215 °C	Cc1c(NC(=O)c2ccc(C(C)(C)C)cc2)cccc1-c1cc(NC(N)=O)c2nccn2c1 [Example I-67, 4-tert-Butyl-N-[2-methyl-3-(8-ureido-imidazo[1,2-a]pyridin-6-yl)-phenyl]-benzamide]
–	178 to 179 °C	Cc1c(NC(=O)c2ccc(C(C)(C)C)cc2)cccc1-c1cc(Nc2nccs2)c2nccn2n1 [Example I-12, 4-tert-Butyl-N-{2-methyl-3-[8-(thiazol-2-ylamino)-imidazo[1,2-b]pyridazin-6-yl]-phenyl}-benzamide]
–	148.4 to 153.2 °C	CNC(=O)Nc1cc(-c2cccc(NC(=O)c3ccc(OC(F)(F)F)cc3)c2C)cn2ccnc12 [Example I-79, N-{2-Methyl-3-[8-(3-methyl-ureido)-imidazo[1,2-a]pyridin-6-yl]-phenyl}-4-trifluoromethoxy-benzamide]
–	147.6 to 152.9 °C	CNC(=O)Nc1cc(-c2cccc(NC(=O)c3ccc(OC)cc3)c2C)cn2ccnc12 [Example I-78, 4-Methoxy-N-{2-methyl-3-[8-(3-methyl-ureido)-imidazo[1,2-a]pyridin-6-yl]-phenyl}-benzamide]
19 nM	183 to 184 °C	Cc1c(NC(=O)c2ccc(C(C)(C)C)cc2)cccc1-c1cc(NC(=O)NCCO)c2nccn2n1 [Example I-11, 4-tert-Butyl-N-(3-{8-[3-(2-hydroxy-ethyl)-ureido]-imidazo[1,2-b]pyridazin-6-yl}-2-methyl-phenyl)-benzamide]
13 nM	–	CCNC(=O)Nc1cc(-c2cccc(NC(=O)c3ccc(C(C)(C)C)cc3)c2C)cn2ccnc12 [Example I-53, 4-tert-Butyl-N-{3-[8-(3-ethyl-ureido)-imidazo[1,2-a]pyridin-6-yl]-2-methyl-phenyl}-benzamide]
10 nM	163 to 165 °C	CNC(=O)Nc1cc(-c2cccc(NC(=O)c3ccc(C(C)(C)C)cc3)c2C)nn2ccnc12 [Example I-8, 4-tert-Butyl-N-{2-methyl-3-[8-(3-methyl-ureido)-imidazo[1,2-b]pyridazin-6-yl]-phenyl}-benzamide]
